Measurements reported in BigSolDB 2.1.

O=C(O)c1ccccc1O
solubility (mole fraction)
Conditions	298.2 K	308.2 K	318.2 K	328.2 K	338.2 K
in acetone	0.137	0.139	0.156	0.196	–
in isopropanol	0.144	0.161	0.173	0.195	0.214
in n-propanol	0.132	0.15	0.163	0.179	0.195
in water	0.000295	0.000355	0.000507	0.000699	0.000944
